In the NIST ThermoML archive (doi:10.1016/j.jct.2011.08.016):

Test: xn = mol fraction of the nth substance listed
Conditions: Liquid, Vibrating tube method

CCCCCCCCCC [decane] + CCCCCCC
Conditions | mass density [kg/m3]
353.08 K, 19000 kPa, x2 = 0.777 | 668.89
353.08 K, 20000 kPa, x2 = 0.5219 | 683.14
353.08 K, 20000 kPa, x2 = 0.777 | 669.88
353.08 K, 21000 kPa, x2 = 0.5219 | 684.06
353.08 K, 21000 kPa, x2 = 0.777 | 670.85
353.08 K, 22000 kPa, x2 = 0.5219 | 684.96
353.08 K, 22000 kPa, x2 = 0.777 | 671.79
353.08 K, 23000 kPa, x2 = 0.5219 | 685.84
353.08 K, 23000 kPa, x2 = 0.777 | 672.72
353.08 K, 24000 kPa, x2 = 0.5219 | 686.7
353.08 K, 24000 kPa, x2 = 0.777 | 673.63
353.08 K, 25000 kPa, x2 = 0.5219 | 687.54
353.08 K, 25000 kPa, x2 = 0.777 | 674.52
353.09 K, 1000 kPa, x2 = 0.2594 | 674.78
353.09 K, 2000 kPa, x2 = 0.2594 | 675.91
353.09 K, 3000 kPa, x2 = 0.2594 | 677.03
353.09 K, 4000 kPa, x2 = 0.2594 | 678.12
353.09 K, 5000 kPa, x2 = 0.2594 | 679.23
353.09 K, 6000 kPa, x2 = 0.2594 | 680.3
353.09 K, 7000 kPa, x2 = 0.2594 | 681.37
353.09 K, 8000 kPa, x2 = 0.2594 | 682.43
353.09 K, 9000 kPa, x2 = 0.2594 | 683.51
353.09 K, 10000 kPa, x2 = 0.2594 | 684.56
353.09 K, 11000 kPa, x2 = 0.2594 | 685.6
353.09 K, 12000 kPa, x2 = 0.2594 | 686.61
353.09 K, 13000 kPa, x2 = 0.2594 | 687.61
353.09 K, 14000 kPa, x2 = 0.2594 | 688.6
353.09 K, 15000 kPa, x2 = 0.2594 | 689.58
353.09 K, 16000 kPa, x2 = 0.2594 | 690.55
353.09 K, 17000 kPa, x2 = 0.2594 | 691.5
353.09 K, 18000 kPa, x2 = 0.2594 | 692.42
353.09 K, 19000 kPa, x2 = 0.2594 | 693.33
353.09 K, 20000 kPa, x2 = 0.2594 | 694.24
353.09 K, 21000 kPa, x2 = 0.2594 | 695.13
353.09 K, 22000 kPa, x2 = 0.2594 | 695.95
353.09 K, 23000 kPa, x2 = 0.2594 | 696.8
353.09 K, 24000 kPa, x2 = 0.2594 | 697.62
353.09 K, 25000 kPa, x2 = 0.2594 | 698.42
353.12 K, 1000 kPa, x2 = 0.952 | 636.17
353.12 K, 2000 kPa, x2 = 0.952 | 637.58
353.12 K, 3000 kPa, x2 = 0.952 | 638.96
353.12 K, 4000 kPa, x2 = 0.952 | 640.34
353.12 K, 5000 kPa, x2 = 0.952 | 641.71
353.12 K, 6000 kPa, x2 = 0.952 | 643.05
353.12 K, 7000 kPa, x2 = 0.952 | 644.36
353.12 K, 8000 kPa, x2 = 0.952 | 645.65
353.12 K, 9000 kPa, x2 = 0.952 | 646.91
353.12 K, 10000 kPa, x2 = 0.952 | 648.14
353.12 K, 11000 kPa, x2 = 0.952 | 649.36
353.12 K, 12000 kPa, x2 = 0.952 | 650.55
353.12 K, 13000 kPa, x2 = 0.952 | 651.72
353.12 K, 14000 kPa, x2 = 0.952 | 652.87
353.12 K, 15000 kPa, x2 = 0.952 | 654
353.12 K, 16000 kPa, x2 = 0.952 | 655.12
353.12 K, 17000 kPa, x2 = 0.952 | 656.22
353.12 K, 18000 kPa, x2 = 0.952 | 657.29
353.12 K, 19000 kPa, x2 = 0.952 | 658.35
353.12 K, 20000 kPa, x2 = 0.952 | 659.4
353.12 K, 21000 kPa, x2 = 0.952 | 660.42
353.12 K, 22000 kPa, x2 = 0.952 | 661.43
353.12 K, 23000 kPa, x2 = 0.952 | 662.41
353.12 K, 24000 kPa, x2 = 0.952 | 663.35
353.12 K, 25000 kPa, x2 = 0.952 | 664.3
363.02 K, 1000 kPa, x2 = 0.5219 | 654.13
363.02 K, 1000 kPa, x2 = 0.777 | 639
363.02 K, 2000 kPa, x2 = 0.5219 | 655.44
363.02 K, 2000 kPa, x2 = 0.777 | 640.47
363.02 K, 3000 kPa, x2 = 0.5219 | 656.74
363.02 K, 3000 kPa, x2 = 0.777 | 641.89
363.02 K, 4000 kPa, x2 = 0.5219 | 657.94
363.02 K, 4000 kPa, x2 = 0.777 | 643.28
363.02 K, 5000 kPa, x2 = 0.5219 | 659.19
363.02 K, 5000 kPa, x2 = 0.777 | 644.65
363.02 K, 6000 kPa, x2 = 0.5219 | 660.44
363.02 K, 6000 kPa, x2 = 0.777 | 646
363.02 K, 7000 kPa, x2 = 0.5219 | 661.67
363.02 K, 7000 kPa, x2 = 0.777 | 647.32
363.02 K, 8000 kPa, x2 = 0.5219 | 662.86
363.02 K, 8000 kPa, x2 = 0.777 | 648.61
363.02 K, 9000 kPa, x2 = 0.5219 | 664.05
363.02 K, 9000 kPa, x2 = 0.777 | 649.89
363.02 K, 10000 kPa, x2 = 0.5219 | 665.24
363.02 K, 10000 kPa, x2 = 0.777 | 651.15
363.02 K, 11000 kPa, x2 = 0.5219 | 666.41
363.02 K, 11000 kPa, x2 = 0.777 | 652.39
363.02 K, 12000 kPa, x2 = 0.5219 | 667.56
363.02 K, 12000 kPa, x2 = 0.777 | 653.61
363.02 K, 13000 kPa, x2 = 0.5219 | 668.7
363.02 K, 13000 kPa, x2 = 0.777 | 654.81
363.02 K, 14000 kPa, x2 = 0.5219 | 669.81
363.02 K, 14000 kPa, x2 = 0.777 | 655.99
363.02 K, 15000 kPa, x2 = 0.5219 | 670.91
363.02 K, 15000 kPa, x2 = 0.777 | 657.15
363.02 K, 16000 kPa, x2 = 0.5219 | 671.98
